Data as given in US7932271B2, “Heterocyclic methyl sulfone derivative” (Daiichi Pharmaceutical Co., Ltd., priority 2003, dated 2011).
Where a name gives a salt, the structure may show the parent alone.

Row | Compound | melting point [°C]
1 | O=C(O)c1cccc(C(c2cc(F)ccc2F)S(=O)(=O)c2ccc(Cl)cc2)n1 (centres unmarked) [Example 146, 6-[(4-Chlorophenylsulfonyl)(2,5-difluorophenyl)methyl]picolinic acid] | 200 to 201
2 | O=C(Nc1nccs1)c1cnc(C(c2cc(F)ccc2F)S(=O)(=O)c2ccc(Cl)cc2)c(F)c1 (centres unmarked) [Example 128, 6-(4-Chlorophenylsulfonyl)(2,5-difluorophenyl)methyl-5-fluoro-N-thiazol-2-ylnicotinamide] | 243 to 245
3 | COc1ccc(CNc2cc(C(c3cc(F)ccc3F)S(=O)(=O)c3ccc(F)cc3)c(Cl)cn2)cc1OC (centres unmarked) [Example 214, [5-Chloro-4-[(2,5-difluorophenyl)-(4-fluorophenylsulfonyl)methyl]pyridin-2-yl](3,4-dimethoxybenzyl)amine] | 158 to 159
4 | Fc1ccc(F)c(C(Sc2ccc(Cl)cc2)c2ccc(C3OCCO3)cn2)c1 (centres unmarked) [Example 41, 2-[(4-Chlorophenylthio)-(2,5-difluorophenyl)methyl]-5-(1,3-dioxolan-2-yl)pyridine] | 70 to 73
5 | O=S(=O)(c1ccc(Cl)cc1)C(c1cccc(CCc2ccccn2)n1)c1cc(F)ccc1F (centres unmarked) [Example 152, 2-[(4-Chlorophenylsulfonyl)(2,5-difluorophenyl)methyl]-6-(2-pyridin-2-ylethyl)pyridine] | 88 to 89
6 | O=S(=O)(c1ccc(Cl)cc1)C(c1ccc[n+]([O-])c1)c1cc(F)ccc1F (centres unmarked) [Example 51, 3-[(4-Chlorophenylsulfonyl)-(2,5-difluorophenyl)methyl]pyridine-N-oxide] | 183 to 184
7 | O=S(=O)(c1ccc(Cl)cc1)C(c1cc[n+]([O-])cc1)c1cc(F)ccc1F (centres unmarked) [Example 52, 4-[(4-Chlorophenylsulfonyl)-(2,5-difluorophenyl)methyl]pyridine-N-oxide] | 211 to 212
8 | COc1ccc(CNc2cc(C(c3cc(F)ccc3F)S(=O)(=O)c3ccc(Cl)cc3)c(Cl)cn2)cc1OC (centres unmarked) [Example 186, 5-Chloro-4-[(4-chlorophenylsulfonyl)(2,5-difluorophenyl)methyl]-2-(3,4-dimethoxybenzylamino)pyridine] | 204 to 206
9 | Nc1cc(C(c2c(F)cccc2F)S(=O)(=O)c2ccc(Cl)cc2)c(Cl)cn1 (centres unmarked) [Example 296, 5-Chloro-4-[(4-chlorophenylsulfonyl)(2,6-difluorophenyl)methyl]pyridin-2-ylamine] | 179 to 181
10 | O=S(=O)(c1ccc(Cl)cc1)C(c1cc(F)ccc1F)c1cc(NCc2ccncc2)ncc1Cl (centres unmarked) [Example 188, 5-Chloro-4-[(4-chlorophenylsulfonyl)(2,5-difluorophenyl)methyl]-2-[(pyridin-4-ylmethyl)amino]pyridine] | 141 to 142
11 | COC(=O)CCc1ccc(C(c2cc(F)ccc2F)S(=O)(=O)c2ccc(Cl)cc2)nc1 (centres unmarked) [Example 45, Methyl 3-[6-[(4-chlorophenylsulfonyl)-(2,5-difluorophenyl)methyl]pyridin-3-yl]propionate] | 121 to 123
12 | O=C(O)c1cc(C(c2cc(F)ccc2F)S(=O)(=O)c2ccc(Cl)cc2)c(F)cn1 (centres unmarked) [Example 201, 4-[(4-Chlorophenylsulfonyl)(2,5-difluorophenyl)methyl]-5-fluoropicolinic acid] | 208 to 209
13 | CC(=O)NCCCNc1cc(C(c2cc(F)ccc2F)S(=O)(=O)c2ccc(Cl)cc2)c(Cl)cn1 (centres unmarked) [Example 174, N-[3-[[5-Chloro-4-[(4-chlorophenylsulfonyl)-(2,5-difluorophenyl)methyl]pyridin-2-yl]amino]propyl]acetamide] | 103 to 105
14 | Nc1cccc(C(c2cc(F)ccc2F)S(=O)(=O)c2ccc(Cl)cc2)n1 (centres unmarked) [Example 149, 6-[(4-Chlorophenylsulfonyl)(2,5-difluorophenyl)methyl]pyridin-2-ylamine] | 183 to 184
15 | O=S(=O)(Cc1ccc(C(c2cc(F)ccc2F)S(=O)(=O)c2ccc(Cl)cc2)nc1)c1ccc(Cl)cc1 (centres unmarked) [Example 40, 2-[(4-Chlorophenylsulfonyl)-(2,5-difluorophenyl)methyl]-5-[(4-chlorophenylsulfonyl)methyl]pyridine] | 186 to 187
16 | COc1ccc(-n2ccnc2C(c2cc(F)ccc2F)S(=O)(=O)c2ccc(Cl)cc2)cc1 (centres unmarked) [Example 31, 2-[[(4-Chlorophenyl)sulfonyl]-(2,5-difluorophenyl)methyl]-1-(4-methoxyphenyl)-1H-imidazole] | 150 to 151
17 | Cc1cnc(CO)cc1C(c1cc(F)ccc1F)S(=O)(=O)c1ccc(Cl)cc1 (centres unmarked) [Example 207, [4-[(4-Chlorophenylsulfonyl)(2,5-difluorophenyl)methyl]-5-methylpyridin-2-yl]methanol] | 196 to 198
18 | O=C1CCCN1CCCNc1cc(C(c2cc(F)ccc2F)S(=O)(=O)c2ccc(Cl)cc2)c(Cl)cn1 (centres unmarked) [Example 169, 1-[3-[[5-Chloro-4-[(4-chlorophenylsulfonyl)-(2,5-difluorophenyl)methyl]pyridin-2-yl]amino]propyl]pyrrolidin-2-one] | 78 to 80
19 | Cc1cnc(NS(C)(=O)=O)cc1C(c1cc(F)ccc1F)S(=O)(=O)c1ccc(Cl)cc1 (centres unmarked) [Example 212, N-[4-[(4-Chlorophenylsulfonyl)(2,5-difluorophenyl)methyl]-5-methylpyridin-2-yl]methanesulfonamide] | 214 to 217

Row | Compound | melting point [°C]
20 | NC(=O)/C=C/c1ccc(C(c2cc(F)ccc2F)S(=O)(=O)c2ccc(Cl)cc2)nc1 (centres unmarked) [Example 136, (E)-3-[6-[(4-Chlorophenylsulfonyl)(2,5-difluorophenyl)methyl]pyridin-3-yl]acrylamide] | 219 to 220
21 | CS(=O)(=O)Nc1cc(C(c2cc(F)ccc2F)S(=O)(=O)c2ccc(Cl)cc2)c(F)cn1 (centres unmarked) [Example 204, N-[4-[(4-Chlorophenylsulfonyl)(2,5-difluorophenyl)methyl]-5-fluoropyridin-2-yl]methanesulfonamide] | 217 to 219
22 | CC(C)(C)OC(=O)N1CCC(C(c2cc(F)ccc2F)S(=O)(=O)c2ccc(Cl)cc2)CC1 (centres unmarked) [Example 37, t-Butyl 4-[[(4-chlorophenyl)sulfonyl](2,5-difluorophenyl)methyl]-1-piperidinecarboxylate] | 193 to 196
23 | NCCNC(=S)c1ccc(C(c2cc(F)ccc2F)S(=O)(=O)c2ccc(Cl)cc2)nc1 (centres unmarked) (as salt: hydrochloride) [Example 142, N-(2-Aminoethyl)-6-[(4-chlorophenylsulfonyl)(2,5-difluorophenyl)methyl]thionicotinamide] | 164 to 166
24 | O=S(=O)(c1ccc(Cl)cc1)C(c1cc(F)ccc1F)c1cc(CO)ncc1Cl (centres unmarked) [Example 257, [5-Chloro-4-[(4-chlorophenylsulfonyl)(2,5-difluorophenyl)methyl]pyridin-2-yl]methanol] | 164 to 165
25 | COCCCNc1cc(C(c2cc(F)ccc2F)S(=O)(=O)c2ccc(Cl)cc2)c(Cl)cn1 (centres unmarked) [Example 184] | 146 to 148
26 | Cc1cnc(C(=O)O)cc1C(c1cc(F)ccc1F)S(=O)(=O)c1ccc(Cl)cc1 (centres unmarked) [Example 209, 4-[(4-Chlorophenylsulfonyl)(2,5-difluorophenyl)methyl]-5-methylpicolinic acid] | 105 to 107
27 | Cc1ccc(C(c2cc(F)ccc2F)S(=O)(=O)c2ccc(Cl)cc2)nc1 (centres unmarked) [Example 15, 2-[[(4-Chlorophenyl)sulfonyl]-(2,5-difluorophenyl)methyl]-5-methylpyridine] | 159 to 160
28 | O=S(=O)(c1ccc(Cl)cc1)C(c1ccncc1)C1CCOCC1 (centres unmarked) [Example 3, 4-[(4-Chlorophenylsulfonyl)(tetrahydropyran-4-yl)methyl]pyridine] | 208 to 209
29 | Fc1ccc(F)c(C(Sc2ccc(Cl)cc2)c2ccncc2Cl)c1 (centres unmarked) [Example 53, 3-Chloro-4-[(4-chlorophenylthio)-(2,5-difluorophenyl)methyl]pyridine] | 70 to 72
30 | Cn1c(Cl)cnc1C(c1cc(F)ccc1F)S(=O)(=O)c1ccc(Cl)cc1 (centres unmarked) [Example 29, 2-[[(4-Chlorophenyl)sulfonyl]-(2,5-difluorophenyl)methyl]-1-methyl-5-chloro-1H-imidazole] | 179 to 180
31 | Cc1cccnc1C(c1cc(F)ccc1F)S(=O)(=O)c1ccc(Cl)cc1 (centres unmarked) [Example 14, 2-[[(4-Chlorophenyl)sulfonyl]-(2,5-difluorophenyl)methyl]-3-methylpyridine] | 142 to 143
32 | O=S(=O)(c1ccc(Cl)cc1)C(c1cc(F)ccc1F)C1CCOCC1 (centres unmarked) [Example 34, 4-[[(4-Chlorophenyl)sulfonyl](2,5-difluorophenyl)methyl]tetrahydropyrane] | 150 to 152
33 | Fc1ccc(SC(c2cc(F)ccc2F)c2cc(Cl)ncc2Cl)cc1 (centres unmarked) [Example 177, 2,5-Dichloro-4-[(2,5-difluorophenyl)-(4-fluorophenylthio)methyl]pyridine] | 95 to 97
34 | O=S(=O)(c1ccc(Cl)cc1)C(c1cc(F)ccc1F)c1cc(NCCOCCO)ncc1Cl (centres unmarked) [Example 183, 2-[2-[5-Chloro-4-[(4-chlorophenylsulfonyl)(2,5-difluorophenyl)methyl]pyridin-2-ylamino]ethoxy]ethanol] | 113 to 115
35 | NCCCNc1cc(C(c2cc(F)ccc2F)S(=O)(=O)c2ccc(Cl)cc2)c(Cl)cn1 (centres unmarked) (as salt: hydrochloride) [Example 173, N-[5-Chloro-4-[(4-chlorophenylsulfonyl)-(2,5-difluorophenyl)methyl]pyridin-2-yl]propane-1,3-diamine dihydrochloride] | 193 to 195
36 | O=S(=O)(CCO)Nc1cc(C(c2cc(F)ccc2F)S(=O)(=O)c2ccc(Cl)cc2)c(Cl)cn1 (centres unmarked) [Example 284, N-[5-Chloro-4-[(4-chlorophenylsulfonyl)(2,5-difluorophenyl)methyl]pyridin-2-yl]-2-hydroxyethanesulfonamide] | 155 to 158
37 | COC(=O)/C=C/c1ccc(C(c2cc(F)ccc2F)S(=O)(=O)c2ccc(Cl)cc2)nc1 (centres unmarked) [Example 44, Methyl 3-[6-[(4-chlorophenylsulfonyl)-(2,5-difluorophenyl)methyl]pyridin-3-yl]acrylate] | 145 to 146
38 | O=C(Nc1ccon1)c1cnc(C(c2cc(F)ccc2F)S(=O)(=O)c2ccc(Cl)cc2)c(F)c1 (centres unmarked) [Example 129, 6-(4-Chlorophenylsulfonyl)(2,5-difluorophenyl)methyl-5-fluoro-N-isoxazol-3-ylnicotinamide] | 200 to 202
